Measurements published in PMC5992379 (Frontiers in Molecular Neuroscience, 2018).
“And” between values parts separate entries of the source, which are not always exact repeats. Identical values can stand only once. Like-named read-outs stand apart in the source and are kept apart here.

How the values were obtained:
[1] = test system: BALB/c mice; settings: for effect of antagonist on the antiallodynia effect of WOBE437, 3 days treatment / effect of antagonist on the antiinflammatory (edema) effect of WOBE437, 3 days treatment / effect of antagonist on the antiallodynia effect of WOBE437, single dose: antagonist i.p. 30 min before WOBE437 10 mg/kg i.p.
Description: BALB/c mice were anesthetized with xylazine/ketamine (5 and 10 mg/kg, respectively) and subsequently monoarthritis was induced by intra-articular injection of complete Freund’s adjuvant (CFA, 40 μL; Sigma-Aldrich, St. Louis, MO, United states) into the right knee joint. The inflammation was allowed to develop for 14 days prior to pharmacological treatments starting at day 15 for 1 or 3 days, respectively. Mechanical sensitivity (allodynia) and knee diameter (edema) were evaluated 1 h post treatment in the ipsilateral and contralateral knees. Articular sensitivity was evaluated using a digital algometer (Bioseb, United states). […] A cut-off force of 300 g was considered to avoid damage in the tissue. The measurements were done in triplicates and the average was considered for the statistical analysis. To evaluate the degree of inflammation, knee diameter was measured in both extremities using a digital micrometer (Mitutoyo, United states). […] Indomethacin (5 mg/kg; Sigma-Aldrich, United states) was used as a reference drug (positive control). For all the compounds, dimethylsulfoxide (DMSO) was used as vehicle (20 μL, i.p.).

[2] = for WOBE437 brain levels / WOBE437 plasma levels: 20 min after gavage
Description: The mice were sacrificed by decapitation after gavage administration. Brain, blood, liver, kidney, and spleen were collected for the LC-MS/MS analyses. All tissues were briefly washed with ice cold PBS and immediately snap-frozen and stored at -80°C. Whole brain samples were dissected between the hemispheres. Blood samples were immediately centrifuged to obtain plasma, which was stored at -80°C.
Samples extractions and LC-MS/MS measurements we performed as previously described ([Chicca et al., 2017]). Briefly, tissues were weighted and transferred in to extraction tubes containing three steel beads and 0.1 M formic acid. Tissues were homogenized and rapidly transferred to glass tubes containing 1.5 mL of ethyl acetate:hexane (9:1) 0.1% formic acid and internal standards (ISs). Samples were centrifuged and the organic phase was recovered. After evaporation, the extracts were reconstituted in 200 μL of ACN:ddH2O (8:2). 10 μL of the solution were injected in the LC-MS/MS system using the same LC and ionization protocols as described ([Chicca et al., 2017]).

[3] = for Clearance: 1 μM WOBE437, preliminary; for MAB (estimated maximal bioavailability): from liver microsome clearance
Description: Human or mice microsome clearance experiment were carried out as according to a previously describe protocol ([Soethoudt et al., 2017]). […] After 1, 3, 6, 9, 15, 25, 35, and 45 min, 40 μL of the preparation was transferred and quenched with 3:1 (v/v) acetonitrile containing internal standards. Samples were then cooled and centrifuged before analysis by LC-MS/MS. Log peak area ratios (test compound peak area/internal standard peak area) are plotted against incubation time using a linear fit. The calculated slope is used to determine the intrinsic clearance. Data are obtained from single experiments measured with multiple time-points.

[4] = test system: BALB/c male mice; assay: Hot plate test (acute pain) after oral administration; format: in vivo
Description: The test was performed using a clean 54–56°C hot plate (Thermo Fisher Scientific, United states) with a Plexiglas cylinder. The latency to show the first nociceptive response (paw lick or foot shake) was measured.

[5] = test system: BALB/c male mice; assay: Tetrad test; format: in vivo; settings: 50 mg/kg p.o., 1 h after gavage
Description: The tetrad test was performed in the following order: rectal temperature, catalepsy, locomotion and analgesia. Rectal temperature was measured before (basal) and 1 h post gavage administration by using a thermocouple probe (Physitemp Instruments Inc., United states) and results were reported as the difference (Δ) between both temperatures. The bar test was used to evaluated catalepsy by placing the mouse in an imposed position with both forelimbs resting on a bar of 4 cm high; the end point of catalepsy was considered when both front limbs were removed or remained over 120 s. Locomotor activity was determined by placing the mouse on a rotarod (Erweka, Germany) at 4 rpm, the latency to fall was measured with a cut-off time of 120 s. Each mouse was previously trained to walk over the rotarod for at least 120 s. Catalepsy and locomotion were measured in three trials. Analgesia was evaluated with the hot plate test, each mouse was placed in a 54–56°C hot plate (Thermo Fisher Scientific, United states) with a Plexiglas cylinder, the latency to first nociceptive response (paw lick or foot shake) was measured.

[6] = test system: endocannabinoid levels (AEA, 2-AG); assay: Endocannabinoid, N-acylethanolamine and WOBE437 levels by LC-MS/MS after the hot plate test; format: in vivo, BALB/c male mice
From the text: The mice were sacrificed by decapitation after gavage administration. […] Whole brain samples were dissected between the hemispheres.
Samples were centrifuged and the organic phase was recovered.

[7] = test system: BALB/c mice; assay: Open field test in monoarthritic mice; format: in vivo; settings: WOBE437 i.p.
Description: Potential motor changes were evaluated in an open field box (40 cm × 40 cm × 30 cm, Plexiglas). The mice were individually placed in the center and allowed to move freely for 5 min. The locomotion activity was recorded with the OpenFieldTest^© ([Reynoso-Moreno et al., 2017]) and traveled distance was evaluated automatically. After every experiment, the box was cleaned with 70% ethanol to remove odors.

[8] = test system: Cnr1, Cnr2, Nape-pld, Dagla; assay: Real-time PCR of ECS genes after 3 days treatment in the monoarthritis model; format: in vivo, BALB/c mice; settings: 10 mg/kg i.p., somatosensory cortex, thalamus, articular tissue
Description: Total RNA extraction and reverse transcription were carried out with a previously described protocol ([Castro-Torres et al., 2015]). The kit LightCycler® FastStart DNA Master^PLUS SYBR Green I (Roche, United states) was used for the real-time PCR, according to manufacturer protocol, and the reaction was performed in the LightCycler 2.0 equipment (Roche, United states). The relative gene expression was calculated by using the method known as 2ˆ(-ΔΔCt) ([Livak and Schmittgen, 2001]). ΔΔCt was calculated using the following formula:
(1) ΔΔCt=(CtTE−CtHE)−(CtTC−CtHC)
Finally 2ˆ(-ΔΔCt) was calculated to obtain the fold change of gene expression. Every sample (n = 6-15, per group and region) was analyzed in duplicated and the mean value was considered for ΔΔCt calculation. Beta-actin was used as the housekeeping gene and mean of vehicle group was used as a calibrator. Sequences and size products of the primers for beta actin (Actb) cannabinoid CB1 receptor (Cnr1), cannabinoid CB2 receptor (Cnr2), diacylglycerol lipase alpha (Dagla), N-acylphosphatidylethanolamine specific phospholipase D (Nape-pld) are shown in Table 1.

[9] = test system: BALB/c male mice; design: method as in Chicca et al., 2017; settings: i.p.; ref Chicca et al., 2017; cited from earlier work
[10] = 50 mg/kg p.o., 1 h after gavage

O=C(Nc1ccccc1)c1cc([N+](=O)[O-])ccc1Cl [GW9662]
effect of antagonist on the antiallodynia effect of WOBE437, 3 days treatment ([1]; 3 days): fully abolished | effect of antagonist on the antiinflammatory (edema) effect of WOBE437, 3 days treatment ([1]; 3 days): only partially prevented | effect of antagonist on the antiallodynia effect of WOBE437, single dose ([1]; single dose): did not block

CCCCCCC/C=C/C=C/C(=O)NCCc1ccc(OC)c(OC)c1 [WOBE437]
WOBE437 brain levels ([2]; 10 mg/kg p.o.): 24.7 ± 25.3 pmol/g | WOBE437 plasma levels ([2]; 10 mg/kg p.o.): 47.3 ± 32.5 pmol/mL | apparent Cmax in brain ([2]; 50 mg/kg p.o.): ~500 pmol/g and 471.7 ± 182.6 pmol/g | apparent volume of distribution (Vd) at Cmax ([2]; 50 mg/kg p.o.): 80.4 L/kg | apparent volume of distribution (Vd) at the steady state ([2]; 50 mg/kg p.o.): 609 L/kg | factor of reduction of hepatic concentration between 20 and 40 min ([2]; 50 mg/kg p.o.): 4 | highest concentration in kidney ([2]; 50 mg/kg p.o.): 2277 ± 916 pmol/g | highest concentration in spleen ([2]; 50 mg/kg p.o.): 1030 ± 339 pmol/g | time after which WOBE437 is cleared from the brain ([2]; 50 mg/kg p.o.): approximately 180 min | tmax in kidney, liver, and spleen ([2]; 50 mg/kg p.o.): ≤ 20 min | brain levels after p.o. as compared to i.p. ([2]; 50 mg/kg p.o. vs 10 mg/kg i.p.): approximately 10 times lower | highest concentration in liver ([2]; 50 mg/kg p.o., 20 min): 4720 ± 3273 pmol/g | WOBE437 brain levels ([2]; 50 mg/kg p.o.): 534.5 ± 109.9 pmol/g | WOBE437 plasma levels ([2]; 50 mg/kg p.o.): 1731.5 ± 703.4 pmol/mL | hepatic concentration at 40 min ([2]; 50 mg/kg p.o., 40 min): 1080 pmol/g | WOBE437 concentration in brain 3 h after administration ([2]; 50 mg/kg p.o., 3 h): 18 pmol/g | Brain t1/2 ([2]; 50 mg/kg p.o., Figure 1B): 62.7 min | Plasma t1/2 ([2]; 50 mg/kg p.o., Figure 1B): 19.5 min | estimated concentration in brain ([2]; 50 mg/kg p.o., equivalent of brain Cmax): 399.7 ± 154.7 nM | Cmax ([2]; read-out: apparent Cmax in plasma, 50 mg/kg p.o.): ~2000 nM and 1930 nM | Clearance ([3]; human liver microsomes): 0.657 mL/min/kg | MAB (estimated maximal bioavailability) ([3]; humans): 4% | MAB (estimated maximal bioavailability) ([3]; mice): 17% | Clearance ([3]; mouse liver microsomes): 0.174 mL/min/kg | increase of pain threshold vs vehicle [4, 10]: 61.7% | pain threshold (latency to first nociceptive response) [4, 10]: 9.4 ± 1.9 s | pain threshold (latency to first nociceptive response) ([4]; 100 mg/kg p.o., 1 h after gavage): 11.7 ± 2.6 s | overall bioavailability compared to the i.p. administration route ([4]; from effective doses in hot plate test, 50 mg/kg p.o. vs 10 mg/kg i.p.): 20% | estimated effective dose (ED50) ([4]; p.o., hot plate): 42.5 ± 3.9 mg/kg | minimum dose necessary to significantly increase the pain threshold ([4]; p.o., hot plate): 50 mg/kg | antinociception in tetrad test (hot plate) [5]: significant antinociception | motor coordination (rotarod) [5]: No statistical differences | change in body temperature ([5]; not statistically different): -0.8 ± 0.8 °C | latency of catalepsy ([5]; not statistically different): 10.5 ± 10.6 s | 2-AG levels in plasma ([6]; 25 mg/kg p.o., 1 h): 21.4 ± 4.5 pmol/mL | 2-AG levels in plasma ([6]; 50 mg/kg p.o., 1 h): 22.6 ± 4.8 pmol/mL | 2-AG levels in somatosensory cortex ([6]; 50 mg/kg p.o., 1 h): no changes | AEA and 2-AG levels in total brain ([6]; 50 mg/kg p.o., 1 h): tendency to increase | AEA levels in somatosensory cortex ([6]; 50 mg/kg p.o., 1 h): significant increase | concentration of AEA in plasma ([6]; 50 mg/kg p.o., 1 h): 2.2 ± 0.3 pmol/mL | 2-AG concentration in total brain ([6]; 50 mg/kg p.o., 1 h, tendency, not significant): 13.9 ± 2.6 nmol/g | 2-AG levels in plasma ([6]; 100 mg/kg p.o., 1 h): 23.8 ± 5.7 pmol/mL | increase of 2-AG levels in plasma ([6]; 25, 50, and 100 mg/kg p.o., vs control): 40% | levels of WOBE437 in somatosensory cortex, total brain and plasma ([6]; BALB/c mice, 1 h after p.o.): in the same range as in male C57BL6/J mice | levels of N-acylethanolamines other than AEA (PEA, OEA, LEA) ([6]; somatosensory cortex, total brain or plasma, 1 h after p.o.): No changes | reduction in allodynia as compared to the contralateral knee ([1]; 10 mg/kg i.p., 3 days treatment): 52% | reduction of inflammation (edema) ([1]; 10 mg/kg i.p., 3 days treatment, as compared to the contralateral knee): 58% | knee diameter ([1]; 10 mg/kg i.p., 3 days treatment, ipsilateral knee): 5.3 ± 0.4 mm | allodynia after single dose ([1]; 10 mg/kg i.p., single dose, 1 h post treatment): significantly decrease allodynia | allodynia and edema at lower doses ([1]; 2.5 and 5.0 mg/kg i.p.): did not show any significant changes | spontaneous motor activity (travel distance) [7]: without significant observable changes | expression of Cnr1, Cnr2, Dagla and Nape-pld [8]: did not lead to any significant change | fully effective dose in the hot plate test upon systemic administration [9]: 10 mg/kg

Oc1cc2c(cc1O)CN(C(=S)NCCc1ccc(Cl)cc1)CCC2 [capsazepine]
effect of antagonist on the antiallodynia effect of WOBE437, single dose ([1]; single dose): completely prevented | tolerability of the antagonist together with 3 days WOBE437 treatment ([1]; capsazepine with WOBE437 10 mg/kg i.p., 3 days): unexpected hypersensitivity

Cc1c(C(=O)NN2CCCCC2)nn(-c2ccc(Cl)cc2Cl)c1-c1ccc(Cl)cc1 [rimonabant]
effect of antagonist pre-treatment on the antinociceptive effect of WOBE437 ([4]; rimonabant 5 mg/kg i.p. 30 min before WOBE437 50 or 100 mg/kg p.o.): completely abolished | effect of antagonist on the antiallodynia effect of WOBE437, 3 days treatment ([1]; 3 days): fully abolished | effect of antagonist on the antiinflammatory (edema) effect of WOBE437, 3 days treatment ([1]; 3 days): only partially prevented | effect of antagonist on the antiallodynia effect of WOBE437, single dose ([1]; single dose): did not block

SR144528
effect of antagonist on the antiallodynia effect of WOBE437, 3 days treatment ([1]; 3 days): fully abolished | effect of antagonist on the antiallodynia effect of WOBE437, single dose ([1]; single dose): completely prevented
